Values joined by “and” are separate entries in the source; they are usually repeats but may differ in a detail not shown here. Equal values may be shown once.
Experiments:
IHUVEC monolayers = test: Evans blue dye-albumin permeability of IHUVEC monolayers; format: cell-based, human
Method: (§1) IHUVEC—immortalized human umbilical vein endothelial cells (ATCC, P.O. Box 1549 Manassas, Va. 20108) or HRGEC—human renal glomerular endothelial cells (ScienCell Research Laboratories, 6076 Corte Del Cedro Carlsbad, Calif. 92011) were cultured within a humidified atmosphere of 5% CO2 in air and grown to confluence. When confluent, the cells were trypsinized and seeded onto 0.45 μm pore size polycarbonate filters at the base of inserts of 6.5 mm diameter Transwell chambers and cultured until confluence.
Human endothelial cell permeability was assessed with the Evans blue dye extravasation assay (Awad et al., 2006). The permeability characteristics of the resulting confluent monolayers were assessed by following the diffusion of albumin-conjugated Evan's blue dye from the upper to lower compartments of the Transwell chambers. After addition of dye, chambers were shaken and allowed to equilibrate for 10-30 min at 37° C. After equilibration, stimuli were added and dye levels in lower compartments intermittently assayed by spectrophotometric analysis.
The addition of TNF-α or thrombin induces apoptosis and increases cell permeability in cultured endothelial cells.

[1] = tested on: human renal glomerular endothelial cells (HRGEC); test: HRGEC apoptosis, kinase phosphorylation, HSP27 and F-actin; format: cell-based
Method: as §1
In further experiments, apoptosis was induced in human renal endothelial (HRGEC) cells with either TNF-α plus cycloheximide or H2O2, with or without Sg1P treatment. In both cases, the addition of Sg1P (1 uM) reduced PARP and caspase 3 fragmentations, which are indices of apoptosis (N=2, data not shown).

[2] = tested on: Nephrectomized C57BL/6 mice with liver IR; test: Nephrectomized C57BL/6 mice with 45 min. liver IR: serum ALT; format: in vivo, mouse
Method: Normally, 1 hour of liver IR results in serum ALT increasing to 15076±1174 U/L (N=6) 24 hours later. In nephrectomized mice, however, the rise in ALT was more severe, and it rose to 20237±2628 U/L (N=3) after only 45 minutes of liver IR. The nephrectomized mice were also less responsive to Sg1P treatment.

[3] = tested on: C57BL/6 mice subjected to liver IR; test: Liver H&E histology after liver IR (percent necrosis, Suzuki score); format: in vivo, mouse; details: liver IR; for Suzuki score (0 = no injury, 12 = maximal injury): H&E liver
Method: (§2) Mice were anesthetized with intraperitoneal pentobarbital (50 mg/kg or to effect). Mice were placed under a heating lamp and on a 37° C. heating pad. After a midline laparotomy and intraperitoneal application of 20 U heparin, left lateral and median lobes of the liver were subjected to ischemia with a microaneurysm clip occluding the hepatic triad above the bifurcation. This method of partial hepatic ischemia results in a segmental (˜70%) hepatic ischemia but spares the right lobe of the liver and prevents mesenteric venous congestion by allowing portal decompression throughout the right and caudate lobes of the liver. The liver was then repositioned in the peritoneal cavity in its original location for 60 minutes. The liver was kept moist with gauze soaked in 0.9% normal saline. The body temperature was monitored by an infrared temperature sensor (Linear Laboratories, Fremont, Calif.) every 10 min. and maintained at 37° C. using a heating lamp and a heating pad. After 60 minutes, the liver was reperfused and the wound closed. Sham-operated mice were subjected to laparotomy and identical liver manipulations without vascular occlusion. Two, 4 and 24 hr after reperfusion, plasma was collected for the measurement of alanine aminotransferase (ALT), a common indicator of liver damage, as well as creatinine (Cr) a common indicator of kidney damage. The liver tissue subjected to IR was collected to measure percent liver necrosis (2, 4 and 24 hr after IR), neutrophil infiltration (with immunohistochemistry, 4 and 24 hr after IR), apoptosis (with terminal deoxynucleotidyl transferase-mediated dUTP nick end labeling staining, caspase 3 immunoblotting and DNA laddering, 24 hr after IR), and inflammation by RT-PCR for pro-inflammatory mRNAs (4 hr after IR).
Livers were also analyzed for the degree of hepatocellular damage using the Suzuki's criteria (Suzuki et al., Transplantation 1993, Vol. 55, pp. 1265-1272). To obtain a Suzuki score, 3 liver injury indices are graded: sinusoidal congestion (0-4), hepatocyte necrosis (0-4), and ballooning degeneration (0-4) are graded for a total score of 0-12. No necrosis, congestion, or centrilobular ballooning is given a score of 0 whereas severe congestion/ballooning and >60% lobular necrosis is given a value of 4.

[4] = tested on: C57BL/6 mice subjected to liver IR; test: Neutrophil infiltration into liver and kidney after liver IR; format: in vivo, mouse
Method: as §2, with “The liver tissue subjected to IR was collected to measure percent liver necrosis (2, 4 and 24 hr after IR), neutrophil infiltration (with immunohistochemistry, 4 and 24 hr after IR), apoptosis (with terminal deoxynucleotidyl transferase-mediated dUTP nick end labeling staining, caspase 3 immunoblotting and DNA laddering, 24 hr after IR), and inflammation by RT-PCR for pro-inflammatory mRNAs (4 hr after IR).” left out

[5] = tested on: SK1 KO mice subjected to liver IR; test: Liver IR in SK1 KO mice: plasma ALT and creatinine; format: in vivo, mouse; details: SK1KO, hepatic IR 24 h
Method: The effects of administering Sg1P (0.1 mg/kg i.v. and 0.2 mg/kg s.c.) on liver and renal injury were also determined in the KO mice and are also shown in Tables 9 and 10 below.

ERK/MAPK, Akt, HSP27 = test: Immunoblotting/RT-PCR of liver and kidney of mice injected with Sg1P; format: in vivo, mouse; details: i.v. injection
Method: Mice were injected with sphinganine 1-phophate intravenously and their kidney and liver tissues were extracted at 15 minutes after injection (for immunoblotting of phosphorylated proteins) or at 5 hours after injection (for RT-PCR). […] HSP27 is a known F-actin stabilizing and anti-apoptotic protein.

[6] = tested on: C57BL/6 mice subjected to liver IR; test: Evans blue dye extravasation (vascular permeability) in liver and kidney after liver IR; format: in vivo, mouse; details: vs vehicle-treated group
Method: After observing marked endothelial apoptosis following liver IR, liver and kidney vascular permeability after liver IR was measured with Evans blue dye (EBD) injection. EBD binds to plasma proteins and its appearance in extravascular tissues reflects an increase in vascular permeability, which is indicative of organ injury. Liver IR increased the EBD content (in μg EBD/g dry weight) in the liver (377±48, N=6) compared to sham-operated mice (48±7, N=4, p<0.001).

[7] = tested on: Sham-operated C57BL/6 mice; test: Sham-operated C57BL/6 mice: plasma ALT and creatinine; format: in vivo, mouse
Method: as §2, with “The liver tissue subjected to IR was collected to measure percent liver necrosis (2, 4 and 24 hr after IR), neutrophil infiltration (with immunohistochemistry, 4 and 24 hr after IR), apoptosis (with terminal deoxynucleotidyl transferase-mediated dUTP nick end labeling staining, caspase 3 immunoblotting and DNA laddering, 24 hr after IR), and inflammation by RT-PCR for pro-inflammatory mRNAs (4 hr after IR).” left out

[8] = nephrectomized, 45 min. liver IR

Q: With `CCCCCCCCCCCCCCC[C@@H](O)[C@@H](N)COP(=O)(O)O` [Sg1P, sphinganine-1-phosphate] as the compound, how does the “Thrombin-induced permeability (albumin leak)” value (IHUVEC monolayers; 5 U/ml thrombin) read?
A: Its value is “same cytoprotective effect”.

Q: And the “TNF-α-induced permeability (albumin leak)” value (IHUVEC monolayers; TNF-α 50 ng/ml or 100 ng/ml, concurrent Sg1P)?
A: Its value is “reduced the permeability of the cells to levels comparable to control”.

Q: What about the “PARP and caspase 3 fragmentations” value ([1]; 1 uM, apoptosis induced with TNF-α plus cycloheximide or H2O2) of the same compound?
A: Its value is “reduced”.

Q: What about the “Phalloidin staining (F-actin)” value ([1]; HRGEC treated with TNF-α, co-administration) of the same compound?
A: Its value is “restored the phalloidin staining”.

Q: What about the “HSP27 phosphorylation and total HSP27 expression” value ([1]; HRGEC, 1 μM) of the same compound?
A: The value was “induced the phosphorylation of HSP27, as well as increased expression of total HSP27”.

Q: What about the “Phosphorylation of ERK and Akt” value ([1]; HRGEC, 1 μM) of the same compound?
A: The value was “resulted in the phosphorylation”.

Q: And the “Reduction in the severity of liver injury (change in ALT levels)” value ([2]; nephrectomized mice)?
A: Its value is 16%.

Q: What about the “ALT (24 hrs. post-IR), individual mice” value [2, 8] of the same compound?
A: The value was 15993.65 U/L and 19276.19 U/L and 15819.05 U/L.

Q: And the “ALT (24 hrs. post-IR), mean” value [2, 8]?
A: Its value is 17029±1124 U/L and 17029.63 U/L.

Q: What about the “Suzuki score (0 = no injury, 12 = maximal injury)” value [3] of the same compound?
A: The value was 5.2 ± 0.8.

Q: What about the “Suzuki score (0 = no injury, 12 = maximal injury)” value ([3]; listed as sphinganine 1-phosphate) of the same compound?
A: The value was 5.2±0.8.

Q: What about the “Average percent necrotic areas in liver” value ([3]; H&E) of the same compound?
A: The value was 44±8%.

Q: And the “Neutrophils in necrotic areas of the liver” value [4]?
A: The value was 21.8±7.1 neutrophils/field.

Q: What about the “Neutrophils in the kidneys” value [4] of the same compound?
A: The value was 0.8±0.3 neutrophils/field.

Q: What about the “Creatinine (mean)” value [5] of the same compound?
A: The value was 0.709 mg/dL.

Q: What about the “ALT (mean)” value ([5]; 0.1 mg/kg i.v. and 0.2 mg/kg s.c.) of the same compound?
A: Its value is 9602.01 U/L.

Q: And the “Phosphorylation of ERK/MAPK, Akt and HSP27 in liver and kidney” value (ERK/MAPK, Akt, HSP27; tissues 15 minutes after injection)?
A: Its value is “resulted in phosphorylation”.

Q: And the “HSP27 mRNA expression in liver and kidney” value (ERK/MAPK, Akt, HSP27; tissues 5 hours after injection)?
A: The value was “induced”.

Q: And the “Increase in EBD content in liver and kidney” value [6]?
A: Its value is “significantly lower”.

Q: And the “Mean ALT” value [7]?
A: Its value is 80 U/L.

Q: And the “Mean Creatinine” value [7]?
A: Its value is 0.46 mg/dL.
